Assay results as given in patent US7109193B2, “Tricyclic diazepines tocolytic oxytocin receptor antagonists” (Wyeth, priority 2001, dated 2006).

Target: T1, human vasopressin V2 receptor subtype (Homo sapiens, UniProt P30518)
T1 construct: host or cells: CHO cells (pZeoSV vector)
Assay: Vasopressin binding in Chinese Hamster Ovary cell membranes expressing human vasopressin V2 subtype receptors
Details: 100 nM, CHO cell membranes, [3H]arginine vasopressin, values without parentheses
Method in brief: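 Radioligand displacement on membranes from CHO cells stably expressing human V2 receptor, 25 to 50 μg protein/well, in 50 mM Tris-HCl pH 7.4 with MgCl2, BSA and protease inhibitors. [^3H]arginine vasopressin (8 nM working solution) incubated 60 min at room temperature; bound label measured by filtration and scintillation counting.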

T1 sequence (P30518 whole entry): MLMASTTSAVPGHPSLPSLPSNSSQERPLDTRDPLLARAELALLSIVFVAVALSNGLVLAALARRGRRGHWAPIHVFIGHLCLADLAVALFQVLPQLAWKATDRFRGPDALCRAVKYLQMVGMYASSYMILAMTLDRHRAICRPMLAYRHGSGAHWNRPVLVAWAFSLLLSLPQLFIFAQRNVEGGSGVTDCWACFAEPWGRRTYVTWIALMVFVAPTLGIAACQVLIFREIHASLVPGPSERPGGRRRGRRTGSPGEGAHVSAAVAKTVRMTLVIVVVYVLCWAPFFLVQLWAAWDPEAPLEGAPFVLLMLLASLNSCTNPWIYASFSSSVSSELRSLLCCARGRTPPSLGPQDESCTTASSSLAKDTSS

Row | Compound | inhibition at 0.1 µM
1 | COc1ccccc1-c1ccc(C(=O)N2Cc3ccc(C(=O)N[C@@H](CCCCNC(=O)OC(C)(C)C)C(N)=O)n3Cc3ccccc32)cc1OC [Example 303, tert-Butyl (5S)-6-amino-5-[({10-[(2,2′-dimethoxy[1,1′-biphenyl]-4-yl)carbonyl]-10,11-dihydro-5H-pyrrolo[2,1-c][1,4]benzodiazepin-3-yl}carbonyl)amino]-6-oxohexylcarbamate] | 14%
2 | Cc1ccccc1-c1ccc(C(=O)N2Cc3ccc(C(=O)NCCCN(C)C)n3Cc3ccccc32)cc1 [Example 76, N-[3-(Dimethylamino)propyl]-10-[(2′-methyl[1,1′-biphenyl]-4-yl)carbonyl]-10,11-dihydro-5H-pyrrolo[2,1-c][1,4]benzodiazepine-3-carboxamide] | 17%
3 | COc1ccccc1-c1ccc(C(=O)N2Cc3ccc(C(=O)N[C@@H](Cc4c[nH]cn4)C(N)=O)n3Cc3ccccc32)cc1C [Example 288, N-[(1S)-2-Amino-1-(1H-imidazol-4-ylmethyl)-2-oxoethyl]-10-[(2′-methoxy-2-methyl[1,1′-biphenyl]4-yl)carbonyl]-10,11-dihydro-5H-pyrrolo[2,1-c][1,4]benzodiazepine-3-carboxamide] | 32%
4 | COc1cccc(-c2ccc(C(=O)N3Cc4ccc(C(=O)N5CCCN(C)CC5)n4Cc4ccccc43)cc2OC)c1 [Example 70, {10-[(2,3′-Dimethoxy[1,1′-biphenyl]-4-yl)carbonyl]-10,11-dihydro-5H-pyrrolo[2,1-c][1,4]benzodiazepin-3-yl}(4-methyl-1,4-diazepan-1-yl)methanone] | 11%
5 | CN1CCN(C(=O)c2ccc3n2Cc2ccccc2N(C(=O)c2ccc(-c4cccc5ccccc45)cc2Cl)C3)CC1 [Example 58, {10-[2-Chloro-4-(1-naphthyl)benzoyl]-10,11-dihydro-5H-pyrrolo[2,1-c][1,4]benzodiazepin-3-yl}(4-methyl-1-piperazinyl)methanone] | 18%
6 | Cc1ccccc1-c1ccc(C(=O)N2Cc3ccc(C(=O)N4CCN(CCCN(C)C)CC4)n3Cc3ccccc32)cc1 [Example 249, {4-[3-(Dimethylamino)propyl]-1-piperazinyl}{10-[(2′-methyl[1,1′-biphenyl]-4-yl)carbonyl]-10,11-dihydro-5H-pyrrolo[2,1-c][1,4]benzodiazepin-3-yl}methanone] | 9%

More lines, now with the values ahead:

Row | inhibition at 0.1 µM | Compound
7 | 17% | C=CCN1CCN(C(=O)c2ccc3n2Cc2ccccc2N(C(=O)c2ccc(-n4c(C)ccc4C)c(OC)c2)C3)CC1 [Example 318, (4-Allyl-1-piperazinyl){10-[4-(2,5-dimethyl-1H-pyrrol-1-yl)-3-methoxybenzoyl]-10,11-dihydro-5H-pyrrolo[2,1-c][1,4]benzodiazepin-3-yl}methanone]
8 | -4% | COc1cc(C(=O)N2Cc3ccc(C(=O)NCCC4CCCN4C)n3Cc3ccccc32)ccc1-n1c(C)ccc1C (stereo not shown) [Example 315, 10-[4-(2,5-Dimethyl-1H-pyrrol-1-yl)-3-methoxybenzoyl]-N-[2-(1-methyl-2-pyrrolidinyl)ethyl]-10,11-dihydro-5H-pyrrolo[2,1-c][1,4]benzodiazepine-3-carboxamide]
9 | 7% | COc1cc(C(=O)N2Cc3ccc(C(=O)N(C)CCN(C)C)n3Cc3ccccc32)ccc1-n1c(C)ccc1C [Example 309, N-[2-(Dimethylamino)ethyl]-10-[4-(2,5-dimethyl-1H-pyrrol-1-yl)-3-methoxybenzoyl]-N-methyl-10,11-dihydro-5H-pyrrolo[2,1-c][1,4]benzodiazepine-3-carboxamide]
10 | 13% | COc1cc(C(=O)N2Cc3ccc(C(=O)N4CCN(C(C)C)CC4)n3Cc3ccccc32)ccc1-n1c(C)ccc1C [Example 319, {10-[4-(2,5-Dimethyl-1H-pyrrol-1-yl)-3-methoxybenzoyl]-10,11-dihydro-5H-pyrrolo[2,1-c][1,4]benzodiazepin-3-yl}(4-isopropyl-1-piperazinyl)methanone]
